Source: patent US8143374B2, “Polypeptide derivatives of parathyroid hormone (PTH)” (The General Hospital Corporation, priority 2006, dated 2012)

Biological target: T1, endogenous PTHR in ROS 17/2.8 cells (Rattus norvegicus, UniProt P25961)
T1 construct: ROS 17/2.8 cells are rat osteosarcoma cells and express the endogenous PTHR; endogenous in cells; host or cells: ROS 17/2.8 rat osteosarcoma cells
T1 sequence (P25961 27-591): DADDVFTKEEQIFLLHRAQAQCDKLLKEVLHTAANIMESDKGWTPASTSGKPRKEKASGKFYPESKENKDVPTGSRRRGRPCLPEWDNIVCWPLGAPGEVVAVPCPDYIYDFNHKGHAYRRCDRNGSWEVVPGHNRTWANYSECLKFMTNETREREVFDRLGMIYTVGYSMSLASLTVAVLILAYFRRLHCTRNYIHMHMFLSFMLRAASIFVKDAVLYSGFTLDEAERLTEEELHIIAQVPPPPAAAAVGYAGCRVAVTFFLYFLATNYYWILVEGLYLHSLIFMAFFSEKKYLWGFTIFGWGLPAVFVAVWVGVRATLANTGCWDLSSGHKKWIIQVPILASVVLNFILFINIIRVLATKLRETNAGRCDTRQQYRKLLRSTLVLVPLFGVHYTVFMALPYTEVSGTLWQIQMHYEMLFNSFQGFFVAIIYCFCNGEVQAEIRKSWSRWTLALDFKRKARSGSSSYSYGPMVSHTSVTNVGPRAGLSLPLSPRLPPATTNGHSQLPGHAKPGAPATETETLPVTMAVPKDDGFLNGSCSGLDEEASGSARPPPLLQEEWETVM
Assay: Stimulation of intracellular cAMP in ROS 17/2.8 cells
Type: cell-based
Method: Cell Culture—Cells were cultured at 37° C. in a humidified atmosphere containing 5% CO2 in Dulbecco's modified Eagle's medium (DMEM), supplemented with 10% fetal bovine serum (HyClone, Logan Utah), 100 units/ml penicillin G, and 100 ug/ml streptomycin penicillin G/streptomycin (Invitrogen Corp. Carlsbad, Calif.). For binding and cAMP studies performed with the intact PTHR, the HKRK-B7 and ROS 17/2.8 cell lines were used. HKRK-B7 cells are derived from the porcine kidney cell line LLC-PK1 and express, via stable DNA transfection, the wild-type human PTHR at an approximate surface density of 950,000 PTH-binding sites per cell. ROS 17/2.8 cells are rat osteosarcoma cells and express the endogenous PTHR at an approximate surface density of 80,000 PTH-binding sites per cell. The cells were plated and assayed in 24-well plates.
Stimulation of intracellular cAMP and inositol phosphate—The capacities of the ligands to stimulate adenylyl cyclase activity were assessed in intact ROS 17/2.8 cells, as described (Shimizu, M., (2001) Endocrinology 142:3068-3074). […] The cAMP in the thawed lysate was then quantified by radioimmuno assay. The stimulation of production of inositol phosphates (IP1+IP2+IP3) was assessed in COS-7 cells transfected with the intact human PTHR, as described previously (Shimizu, M., (2001) Endocrinology 142:3068-3074). […]

SVSEIQLMHNLGKHLNSMEEVEWLRKKLQDV [Arg^20→Glu]
EC50: 59 ± 31 nM
